Patent US11964988B2, “Fused heterocyclic compounds as RET kinase inhibitors” (ARRAY BIOPHARMA INC., priority 2018, dated 2024)
Numbering of substitutions follows the chain as printed. Where two headings read alike, the source gives them in different places.

Assays:
RET kinase V804M = RET kinase V804M (Homo sapiens, UniProt P07949, V804M); assay: RET Enzyme Assay (CisBio HTRF KinEASE-TK), V804M; assay type: biochemical; conditions: read-out: RET V804M Enz FRET IC50
Method: The potency of compounds inhibiting several different RET kinase forms (Wild Type, V804M, G810R, & G810S) were determined using CisBio's HTRF® KinEASE™-TK assay technology. […] After a 1 hour incubation at 22° C., the extent of reaction was determined using a PerkinElmer EnVision multimode plate reader via HTRF dual wavelength detection, and the percent of control (POC) was calculated using a ratiometric emission factor. One hundred POC was determined using DMSO only samples (no compound present), and 0 POC was determined using pre-quenched control reactions.

[1] = molecular target: T1, HEK-293 cells expressing a Kif5b-RET fusion protein (Homo sapiens, UniProt P07949); assay: RET Cell Assay (phospho-RET Tyr1062); assay type: cell-based; conditions: HEK-293 Kif5b-RET, 1 hour incubation, phospho-RET normalized to GAPDH; read-out: KIF5B-RET pTYR1062 Cell IC50
T1 construct: KIF5B (N-terminal portion incl. coiled-coil); expressed in transfected cells; host or cells: HEK-293; the other entry of the earlier key: KIF5B (P33176, Kinesin-1 heavy chain)
T1 sequence (P07949 713-1063 limits assumed): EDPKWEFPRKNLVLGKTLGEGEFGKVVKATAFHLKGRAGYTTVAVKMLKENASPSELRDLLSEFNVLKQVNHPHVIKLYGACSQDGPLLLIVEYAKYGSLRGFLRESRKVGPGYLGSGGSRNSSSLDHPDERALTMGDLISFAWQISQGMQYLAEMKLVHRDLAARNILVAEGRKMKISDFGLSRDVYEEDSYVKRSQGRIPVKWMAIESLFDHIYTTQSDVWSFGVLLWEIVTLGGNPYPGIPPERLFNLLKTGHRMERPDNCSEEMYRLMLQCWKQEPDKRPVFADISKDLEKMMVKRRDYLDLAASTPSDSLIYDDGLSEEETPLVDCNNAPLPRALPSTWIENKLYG
How it was run: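 Kif5b-RET HEK-293 cells treated 1 hour with compound in DMEM (0.5% DMSO final), then fixed and immunostained for phospho-RET Tyr1062, normalized to GAPDH by infrared fluorescence. IC50 where the 4-parameter logistic fit of POC crosses 50.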

[2] = molecular target: T2, HEK-293 cells expressing a G810R mutant RET Kif5b-RET fusion protein (Homo sapiens, UniProt P07949, G810R); assay: RET G810R Mutant Cell Assay (phospho-RET Tyr1062); assay type: cell-based; conditions: HEK-293 Kif5b-RET G810R, 1 hour incubation, phospho-RET normalized to GAPDH
T2 construct: KIF5B (N-terminal portion incl. coiled-coil); expressed in transfected cells; host or cells: HEK-293; the other entry of the earlier key: KIF5B (P33176, Kinesin-1 heavy chain)
T2 sequence (P07949 713-1063 G810R limits assumed): T1 sequence (P07949 713-1063 limits assumed) with G98R
How it was run: (§1)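 Engineered HEK-293 cells were treated 1 h with compound in DMEM, 0.5% DMSO final, then fixed, permeabilized and immunostained for phospho-RET Tyr1062 and GAPDH. In-cell fluorescence pRET signal was normalized to GAPDH; IC50 taken from a 4-parameter logistic fit of percent of control at 50 POC.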

[3] = molecular target: T3, HEK-293 cells expressing a G810S mutant RET Kif5b-RET fusion protein (Homo sapiens, UniProt P07949, G810S); assay: RET G810S Mutant Cell Assay (phospho-RET Tyr1062); assay type: cell-based; conditions: HEK-293 Kif5b-RET G810S, 1 hour incubation, phospho-RET normalized to GAPDH
T3 construct: KIF5B (N-terminal portion incl. coiled-coil); expressed in transfected cells; host or cells: HEK-293
T3 sequence (P07949 713-1063 G810S limits assumed): T1 sequence (P07949 713-1063 limits assumed) with G98S
How it was run: as §1

RET kinase Wild Type [4] = molecular target: T4, RET kinase Wild Type (Homo sapiens, UniProt P07949); assay: biochemical;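 further: HTRF kinase activity assay on RET enzyme, 1 h reaction at 22 °C, dual-wavelength readout as percent of control, DMSO-only wells as 100%, pre-quenched reactions as 0%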
T4 sequence (P07949 29-1114): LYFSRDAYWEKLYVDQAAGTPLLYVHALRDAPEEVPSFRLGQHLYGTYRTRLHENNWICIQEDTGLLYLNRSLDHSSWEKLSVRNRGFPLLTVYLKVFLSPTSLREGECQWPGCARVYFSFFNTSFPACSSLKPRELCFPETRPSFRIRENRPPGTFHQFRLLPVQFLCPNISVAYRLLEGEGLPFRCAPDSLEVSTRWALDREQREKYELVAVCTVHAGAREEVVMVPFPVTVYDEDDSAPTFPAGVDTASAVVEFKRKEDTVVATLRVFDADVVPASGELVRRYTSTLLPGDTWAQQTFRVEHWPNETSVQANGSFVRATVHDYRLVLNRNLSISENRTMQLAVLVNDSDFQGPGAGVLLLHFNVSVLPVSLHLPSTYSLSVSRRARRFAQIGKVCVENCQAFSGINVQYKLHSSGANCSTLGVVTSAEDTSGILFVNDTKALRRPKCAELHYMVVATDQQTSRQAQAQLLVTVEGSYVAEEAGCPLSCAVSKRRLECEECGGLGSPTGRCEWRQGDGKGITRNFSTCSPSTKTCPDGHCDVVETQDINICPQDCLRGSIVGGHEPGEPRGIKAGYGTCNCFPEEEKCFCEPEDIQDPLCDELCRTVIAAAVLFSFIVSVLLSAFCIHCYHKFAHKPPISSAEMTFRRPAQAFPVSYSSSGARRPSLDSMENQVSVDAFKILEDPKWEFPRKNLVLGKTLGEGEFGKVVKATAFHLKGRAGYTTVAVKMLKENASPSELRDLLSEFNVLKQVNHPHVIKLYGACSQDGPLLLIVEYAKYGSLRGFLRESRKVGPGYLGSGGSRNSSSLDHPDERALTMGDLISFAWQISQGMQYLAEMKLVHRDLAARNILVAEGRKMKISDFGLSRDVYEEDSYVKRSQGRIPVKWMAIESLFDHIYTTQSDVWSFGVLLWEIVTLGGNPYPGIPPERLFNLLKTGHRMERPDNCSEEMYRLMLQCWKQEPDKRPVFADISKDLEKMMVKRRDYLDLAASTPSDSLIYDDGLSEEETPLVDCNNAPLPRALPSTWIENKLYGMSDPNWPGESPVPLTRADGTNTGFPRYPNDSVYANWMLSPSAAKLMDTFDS

G810R mutant RET kinase [5] = molecular target: T5, G810R mutant RET kinase (Homo sapiens, UniProt P07949, G810R); assay: biochemical;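 further: HTRF KinEASE-TK enzymatic assay with 1 nM recombinant RET G810R, 1 h at 22 °C, dual-wavelength ratiometric readout, 100% control without compound, 0% from pre-quenched reactions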
T5 sequence (P07949 29-1114 G810R): as the sequence (P07949 29-1114) above, with G782R counted along it

G810S mutant RET kinase [6] = molecular target: T6, G810S mutant RET kinase (Homo sapiens, UniProt P07949, G810S); assay: biochemical;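 further: HTRF KinEASE-TK kinase assay with recombinant enzyme, 1 h at 22 °C, dual-wavelength ratiometric read-out, percent of control (DMSO-only = 100, pre-quenched reaction = 0)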
T6 sequence (P07949 29-1114 G810S): as the sequence (P07949 29-1114) above, with G782S counted along it

RET kinase Wild Type [7] = molecular target: T4, RET kinase Wild Type
G810R mutant RET kinase [8] = molecular target: T5, G810R mutant RET kinase
G810S mutant RET kinase [9] = molecular target: T6, G810S mutant RET kinase
[10] = V804M RET, 1 mM ATP, averaged IC50

RET kinase V804M, sequence (P07949 29-1114 V804M): as the sequence (P07949 29-1114) above, with V776M counted along it

SMILES	IC50 (RET kinase V804M) [nM]	IC50 [1] [nM]	IC50 [2] [nM]	IC50 [3] [nM]	IC50 (RET kinase Wild Type [4]) [nM]	IC50 (G810R mutant RET kinase [5]) [nM]	IC50 (G810S mutant RET kinase [6]) [nM]	IC50 (RET kinase V804M; [10]) [nM]	IC50 (RET kinase Wild Type [7]) [nM]	IC50 (G810R mutant RET kinase [8]) [nM]	IC50 (G810S mutant RET kinase [9]) [nM]
CC1Cc2c(c3c(N)ncnc3n2C(C)C)-c2noc(C3CC3)c2C1O (centres unmarked) [Example 61, 11-amino-3-cyclopropyl-7-isopropyl-5-methyl-4,5,6,7-tetrahydroisoxazolo[4″,3″:6′,7′]cyclohepta[1′,2′:4,5]pyrrolo[2,3-d]pyrimidin-4-ol]	136	33	281	101	31	89	58				
Cc1ccc2c(c1)cc1n2C(=O)NCc2c-1c1c(N)ncnc1n2C(C)C [Example 81, 1-amino-5-isopropyl-12-methyl-6,7-dihydropyrimido[5″,4″:4′,5′]pyrrolo[2′,3′: 5,6][1,3]diazepino[1,7-a]indol-8(5H)-one]	5490	11	76	39	19	94	52				
CC(C)n1c2c(c3c(N)ncnc31)-c1cc3ccc(C(=O)NC4CC4)cc3n1CCC2 [Example 87, 1-Amino-N-cyclopropyl-5-isopropyl-5,6,7,8-tetrahydropyrimido[5″,4″:4′,5′]pyrrolo[3′,2′:3,4]azepino[1,2-a]indole-11-carboxamide]	5780	32	89	71	47	202	204				
CC(C)n1c2c(c3c(N)ncnc31)-c1cc3ccc(C(=O)Nc4ccn(CCN5CCOCC5)n4)cc3n1CCC2 [Example 88, 1-amino-5-isopropyl-N-(1-(2-morpholinoethyl)-1H-pyrazol-3-yl)-5,6,7,8-tetrahydropyrimido[5″,4″:4′,5′]pyrrolo[3′,2′: 3,4]azepino[1,2-a]indole-11-carboxamide]	6260	50	53	44	62	288	297				
CC(C)n1c2c(c3c(N)ncnc31)-c1cc3ccc(C(=O)NC4(C)CC4)cc3n1CCC2 [Example 97, 1-amino-5-isopropyl-N-(1-methylcyclopropyl)-5,6,7,8-tetrahydropyrimido[5″,4″:4′,5′]pyrrolo[3′,2′: 3,4]azepino[1,2-a]indole-11-carboxamide]	4460	26	47	47	73	478	457				
Nc1ncnc2c1c1c(n2-c2ccccc2)CCC(O)c2c-1noc2C1CC1 (centres unmarked) [Example 118, 11-Amino-3-cyclopropyl-7-phenyl-4,5,6,7-tetrahydroisoxazolo[4″,3″:6′,7′]cyclohepta[1′,2′:4,5]pyrrolo[2,3-d]pyrimidin-4-ol 2,2,2-trifluoroacetate]	99	125	206	108	131	80	75				
Nc1ncnc2c1c1c(n2C2CCCC2)CCC(O)c2c-1noc2C1CC1 (centres unmarked) [Example 120, 11-Amino-7-cyclopentyl-3-cyclopropyl-4,5,6,7-tetrahydroisoxazolo[4″,3″:6′,7′]cyclohepta[1′,2′:4,5]pyrrolo[2,3-d]pyrimidin-4-ol]	20	15	35	33	10	74	24				
Nc1ncnc2c1c1c(n2C2CCC(O)C2)CCC(O)c2c-1noc2C1CC1 (centres unmarked) [Example 129, 11-Amino-3-cyclopropyl-7-(3-hydroxycyclopentyl)-4,5,6,7-tetrahydroisoxazolo[4″,3″:6′,7′]cyclohepta[1′,2′:4,5]pyrrolo[2,3-d]pyrimidin-4-ol]	21	18	46	65	8	23	19				
CC(n1c2c(c3c(N)ncnc31)-c1noc(C3CC3)c1C(O)CC2)C(F)(F)F (centres unmarked) [Example 131, 11-Amino-3-cyclopropyl-7-(1,1,1-trifluoropropan-2-yl)-4,5,6,7-tetrahydroisoxazolo[4″,3″:6′,7′]cyclohepta[1′,2′:4,5]pyrrolo[2,3-d]pyrimidin-4-ol]	41	14	30	60	14	97	18				
Nc1ncnc2c1c1c(n2C2CCNC2)CCC(O)c2c-1noc2C1CC1 (stereo not drawn) [Example 132, (Cis)-11-amino-3-cyclopropyl-7-(pyrrolidin-3-yl)-4,5,6,7-tetrahydroisoxazolo[4″,3″:6′,7]cyclohepta[1′,2′:4,5]pyrrolo[2,3-d]pyrimidin-4-ol 2,2,2-trifluoroacetate]								1940	1710	4460	2320
Nc1ncnc2c1c1c(n2C2CCNC2)CCC(O)c2c-1noc2C1CC1 (stereo not drawn) [Example 133, (Trans)-11-amino-3-cyclopropyl-7-(pyrrolidin-3-yl)-4,5,6,7-tetrahydroisoxazolo[4″,3″:6′,7′]cyclohepta[1′,2′:4,5]pyrrolo[2,3-d]pyrimidin-4-ol 2,2,2-trifluoroacetate]								6200	2640	6140	3400
COC(=O)[C@H]1C[C@H](n2c3c(c4c(N)ncnc42)-c2noc(C4CC4)c2C(=O)CC3)C1 [Example 142, Methyl (1r,3r)-3-(11-amino-3-cyclopropyl-4-oxo-5,6-dihydroisoxazolo[4″,3″:6′,7′]cyclohepta[1′,2′:4,5]pyrrolo[2,3-d]pyrimidin-7(4H)-yl)cyclobutane-1-carboxylate]								505	124	157	425
CC1(n2c3c(c4c(N)ncnc42)-c2noc(C4CC4)c2[C@H](O)CC3)CC1 [Example 150, (R)-11-Amino-3-cyclopropyl-7-(1-methylcyclopropyl)-4,5,6,7-tetrahydroisoxazolo[4″,3″:6′,7′]cyclohepta[1′,2′:4,5]pyrrolo[2,3-d]pyrimidin-4-ol]	15	4	40	18	12	84	46				
CO[C@@H]1CCc2c(c3c(N)ncnc3n2C2(C)CC2)-c2noc(C3CC3)c21 [Example 151, (R)-3-Cyclopropyl-4-methoxy-7-(1-methylcyclopropyl)-4,5,6,7-tetrahydroisoxazolo[4″,3″:6′,7]cyclohepta[1′,2′:4,5]pyrrolo[2,3-d]pyrimidin-11-amine]	27	14	113	57	9	86	55				
